Experimental data: PMC12155096 (International Journal of Molecular Sciences, 2025); call rule not given here
Where two headings read alike, the source gives them in different places.

Tests used:
[1] = target: T1, human CYP1A2 (Homo sapiens, UniProt P05177); assay: biochemical
T1 sequence (P05177 1-516): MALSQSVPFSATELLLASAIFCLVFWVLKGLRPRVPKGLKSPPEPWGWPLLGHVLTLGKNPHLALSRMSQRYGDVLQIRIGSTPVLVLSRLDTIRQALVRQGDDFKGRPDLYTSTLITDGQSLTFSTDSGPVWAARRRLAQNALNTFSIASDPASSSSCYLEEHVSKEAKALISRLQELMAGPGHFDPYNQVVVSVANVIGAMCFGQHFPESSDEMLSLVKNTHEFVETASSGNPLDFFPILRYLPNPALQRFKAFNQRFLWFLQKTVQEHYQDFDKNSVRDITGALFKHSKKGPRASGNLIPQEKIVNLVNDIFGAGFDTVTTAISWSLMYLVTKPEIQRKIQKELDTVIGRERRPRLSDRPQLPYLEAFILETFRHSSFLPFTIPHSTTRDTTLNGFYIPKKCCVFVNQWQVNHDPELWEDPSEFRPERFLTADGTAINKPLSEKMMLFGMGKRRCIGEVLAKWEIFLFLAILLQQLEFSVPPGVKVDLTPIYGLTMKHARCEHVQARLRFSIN

[2] = target: CYP3A4 (Homo sapiens, UniProt P08684); assay: biochemical
CYP3A4, sequence (P08684 whole entry): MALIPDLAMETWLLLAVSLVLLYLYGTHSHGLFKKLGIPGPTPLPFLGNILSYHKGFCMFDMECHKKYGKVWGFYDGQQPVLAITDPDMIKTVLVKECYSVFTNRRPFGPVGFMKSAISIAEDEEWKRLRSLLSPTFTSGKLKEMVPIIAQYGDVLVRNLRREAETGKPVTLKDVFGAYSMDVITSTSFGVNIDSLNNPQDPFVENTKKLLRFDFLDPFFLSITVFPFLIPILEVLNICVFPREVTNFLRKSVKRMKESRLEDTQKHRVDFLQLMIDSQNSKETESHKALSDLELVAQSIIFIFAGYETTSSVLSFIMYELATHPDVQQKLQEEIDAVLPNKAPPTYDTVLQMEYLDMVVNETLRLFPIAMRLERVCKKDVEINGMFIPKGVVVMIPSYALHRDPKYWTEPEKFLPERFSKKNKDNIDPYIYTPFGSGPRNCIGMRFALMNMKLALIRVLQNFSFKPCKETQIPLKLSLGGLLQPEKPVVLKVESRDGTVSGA

[3] = target: Photinus pyralis (firefly) luciferase (Photinus pyralis, UniProt P08659); assay: biochemical; format: biochemical; set-up: Luciferase Efficacy: unit not given here
Photinus pyralis (firefly) luciferase, sequence (P08659 whole entry): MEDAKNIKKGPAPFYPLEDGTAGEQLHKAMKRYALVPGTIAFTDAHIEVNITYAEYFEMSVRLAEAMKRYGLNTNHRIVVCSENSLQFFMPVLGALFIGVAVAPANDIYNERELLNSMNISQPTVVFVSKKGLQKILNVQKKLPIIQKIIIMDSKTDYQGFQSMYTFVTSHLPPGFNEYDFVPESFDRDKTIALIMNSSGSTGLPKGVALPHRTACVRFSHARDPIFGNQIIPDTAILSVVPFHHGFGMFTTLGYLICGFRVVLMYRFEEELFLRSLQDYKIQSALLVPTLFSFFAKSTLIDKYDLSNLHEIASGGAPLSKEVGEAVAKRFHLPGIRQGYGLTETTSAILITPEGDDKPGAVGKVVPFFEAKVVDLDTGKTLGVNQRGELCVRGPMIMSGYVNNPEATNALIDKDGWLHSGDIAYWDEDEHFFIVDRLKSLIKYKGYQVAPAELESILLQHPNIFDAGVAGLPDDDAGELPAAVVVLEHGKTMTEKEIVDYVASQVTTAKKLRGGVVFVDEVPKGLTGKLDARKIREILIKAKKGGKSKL

[4] = target: T2, human CYP2D6 (Homo sapiens, UniProt P10635); assay: biochemical
T2 sequence (P10635 whole entry): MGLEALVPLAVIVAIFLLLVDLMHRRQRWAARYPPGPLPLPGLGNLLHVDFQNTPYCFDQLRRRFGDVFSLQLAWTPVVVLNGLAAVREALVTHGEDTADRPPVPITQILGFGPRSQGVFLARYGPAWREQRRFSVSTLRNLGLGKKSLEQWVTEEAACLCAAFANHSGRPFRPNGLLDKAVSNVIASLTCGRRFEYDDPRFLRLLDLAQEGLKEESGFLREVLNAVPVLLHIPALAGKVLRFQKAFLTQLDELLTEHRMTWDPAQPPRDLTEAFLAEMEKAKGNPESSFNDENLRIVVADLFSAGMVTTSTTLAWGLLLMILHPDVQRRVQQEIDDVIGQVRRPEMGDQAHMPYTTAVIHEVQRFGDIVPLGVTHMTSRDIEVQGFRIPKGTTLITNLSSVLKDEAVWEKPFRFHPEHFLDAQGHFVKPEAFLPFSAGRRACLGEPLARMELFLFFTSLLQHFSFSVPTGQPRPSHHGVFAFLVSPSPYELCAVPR

[5] = target: human CYP2C9 (Homo sapiens, UniProt P11712); assay: biochemical
human CYP2C9, sequence (P11712 whole entry): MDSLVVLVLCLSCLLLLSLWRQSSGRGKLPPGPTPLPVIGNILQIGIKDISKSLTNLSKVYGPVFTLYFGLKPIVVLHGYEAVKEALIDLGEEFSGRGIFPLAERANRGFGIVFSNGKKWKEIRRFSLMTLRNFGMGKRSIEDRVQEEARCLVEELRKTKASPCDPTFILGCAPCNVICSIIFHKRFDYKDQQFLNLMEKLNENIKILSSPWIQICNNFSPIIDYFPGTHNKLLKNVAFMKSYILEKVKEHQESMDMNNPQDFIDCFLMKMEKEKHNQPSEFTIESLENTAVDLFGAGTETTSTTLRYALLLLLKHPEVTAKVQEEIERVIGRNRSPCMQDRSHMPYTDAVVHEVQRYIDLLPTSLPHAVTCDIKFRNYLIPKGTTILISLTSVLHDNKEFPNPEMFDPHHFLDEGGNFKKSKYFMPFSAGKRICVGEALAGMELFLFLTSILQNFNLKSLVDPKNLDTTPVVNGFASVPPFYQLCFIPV

[6] = target: human CYP2C19 (Homo sapiens, UniProt P33261); assay: biochemical
human CYP2C19, sequence (P33261 whole entry): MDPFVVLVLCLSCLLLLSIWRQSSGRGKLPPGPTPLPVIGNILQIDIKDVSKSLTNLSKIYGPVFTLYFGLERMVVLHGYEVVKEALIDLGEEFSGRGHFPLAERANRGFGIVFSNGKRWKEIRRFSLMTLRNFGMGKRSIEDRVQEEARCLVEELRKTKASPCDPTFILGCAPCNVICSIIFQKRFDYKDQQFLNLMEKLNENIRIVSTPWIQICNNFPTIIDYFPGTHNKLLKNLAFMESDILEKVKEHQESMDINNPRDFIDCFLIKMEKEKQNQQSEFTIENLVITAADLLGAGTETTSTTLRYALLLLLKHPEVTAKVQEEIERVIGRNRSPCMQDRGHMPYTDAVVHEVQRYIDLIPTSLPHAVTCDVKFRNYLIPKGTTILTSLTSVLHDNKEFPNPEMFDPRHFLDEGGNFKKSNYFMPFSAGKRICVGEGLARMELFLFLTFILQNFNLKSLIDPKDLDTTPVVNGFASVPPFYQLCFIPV

[7] = target: T2, human CYP2D6; conditions: human, 1 h
[8] = CYP1A2 IC50 (half-maximal inhibitory concentration)
[9] = CYP3A4 IC50 (half-maximal inhibitory concentration)
[10] = CYP2D6 IC50 (half-maximal inhibitory concentration)
[11] = CYP2C9 IC50 (half-maximal inhibitory concentration)
[12] = CYP2C19 IC50 (half-maximal inhibitory concentration)

| Compound | IC50 [1, 8] | IC50 [2, 9] | IC50 [4, 10] | IC50 [5, 11] | IC50 [6, 12] | Luciferase IC50 (half-maximal inhibitory concentration) [3] | IC50 [4] | IC50 [5] | IC50 ([1]; CYP1A2 IC50) | IC50 ([2]; CYP3A4 IC50) | IC50 ([6]; CYP2C19 IC50) | Luciferase IC50 [3] | other results |
| --- | --- | --- | --- | --- | --- | --- | --- | --- | --- | --- | --- | --- | --- |
| O=[N+]([O-])c1cc(C(F)(F)F)c(Cl)c([N+](=O)[O-])c1Nc1ncc(C(F)(F)F)cc1Cl [Fluazinam] | 35.6 µM | 18.7 µM | 46.2 µM | 0.73 µM | 14.8 µM |  |  |  |  |  |  |  | IC50 [3]: 89.4 µM |
| C[Si](Cn1cncn1)(c1ccc(F)cc1)c1ccc(F)cc1 [Flusilazole] | 27.9 µM | 0.16 µM | 33 µM | 2.28 µM | 0.06 µM | Inactive |  |  |  |  |  |  |  |
| OC(Cn1cncn1)(c1ccc(F)cc1)c1ccccc1F (stereo not shown) [Flutriafol] | 35.7 µM | 0.24 µM | 37 µM | 0.77 µM | 1.63 µM | Inactive |  |  |  |  |  |  |  |
| CCCCC(O)(Cn1cncn1)c1ccc(Cl)cc1Cl (stereo not shown) [Hexaconazole] | 37 µM | 0.11 µM | 33 µM | 0.52 µM | 0.3 µM | Inactive |  |  |  |  |  |  |  |
| COP(N)(=S)Oc1ccccc1C(=O)OC(C)C (stereo not shown) [Isocarbophos] | 1.14 µM | 1.61 µM | 46.1 µM | 5.11 µM | 0.13 µM | Inactive |  |  |  |  |  |  |  |
| CCOP(=S)(NC(C)C)Oc1ccccc1C(=O)OC(C)C (stereo not shown) [Isofenphos] | 9.71 µM | 0.68 µM |  |  | 0.19 µM | Inactive | 60.6 µM | 1.44 µM |  |  |  |  |  |
| CCOP(=S)(OCC)Oc1cc(-c2ccccc2)on1 [Isoxathion] |  |  |  |  |  |  | 35.6 µM | 0.75 µM | 3.92 µM | 2.11 µM | 2.55 µM |  | IC50 [3]: 33 µM |
| O=C1C2(Cl)C3(Cl)C4(Cl)C(Cl)(Cl)C5(Cl)C3(Cl)C1(Cl)C5(Cl)C24Cl (stereo not shown) [Kepone] |  |  |  |  |  |  | 67.9 µM | 6.47 µM | 36.4 µM | 3.13 µM | 0.87 µM | Inactive |  |
| CCCCN(CCCC)CC(O)c1cc(Cl)cc2c1-c1ccc(Cl)cc1/C2=C/c1ccc(Cl)cc1 (stereo not shown) [Lumefantrine] |  |  |  |  |  |  |  |  | 14.8 µM | 16.8 µM | 26.9 µM | Inactive | IC50 ([4]; CYP2D6 IC50): 0.69 µM; IC50 ([5]; CYP2C9 IC50): 16.2 µM |
| CCN(CC)C(=O)[C@@H]1C=C2c3cccc4[nH]cc(c34)C[C@H]2N(C)C1 [Lysergide] |  |  |  |  |  |  |  |  | 151 µM | 71.8 µM | 156 µM | Inactive | IC50 ([4]; CYP2D6 IC50): 0.43 µM; IC50 ([5]; CYP2C9 IC50): 72.9 µM |
| CCCCC(CC)CN1C(=O)C2C3C=CC(C3)C2C1=O (stereo not shown) [MGK-264] |  |  |  |  |  |  | 31.4 µM | 10.1 µM |  |  |  | Inactive | IC50 [1]: 18.6 µM; CYP2D6 Efficacy [7]: 31.36 ± 8.74 (-86 ± 27) %; IC50 [2]: 0.86 µM; IC50 [6]: 4.9 µM |
| CCOC(=O)N(C)C(=O)CSP(=S)(OCC)OCC [Mecarbam] |  |  |  |  |  |  |  |  | 2.91 µM | 2.6 µM | 0.09 µM | Inactive | IC50 ([4]; CYP2D6 IC50): 27.5 µM; IC50 ([5]; CYP2C9 IC50): 0.7 µM |
| CC(C)Nc1ccc(Nc2ccccc2)cc1 [N-Isopropyl-N'-phenyl-p-phenylenediamine] |  |  |  |  |  |  |  |  | 35.5 µM | 17.3 µM | 4.25 µM |  | IC50 [3]: 34.2 µM; Luciferase Efficacy [3]: 34.17 ± 2.23 (-75 ± 7) %; IC50 ([4]; CYP2D6 IC50): 9.04 µM; IC50 ([5]; CYP2C9 IC50): 0.97 µM |
| COc1ccc(S(=O)(=O)N2C(=O)[C@@](c3ccccc3OC)(N3C[C@H](O)C[C@H]3C(=O)N(C)C)c3cc(Cl)ccc32)c(OC)c1 [Nelivaptan] |  |  |  |  |  | Inactive | 55.1 ± 29.4 µM | 44.5 ± 24.6 µM |  |  |  |  | IC50 [1]: 53.3 ± 25 µM; CYP2D6 Efficacy [7]: 55.12 ± 29.45 (-53 ± 5) %; IC50 [2]: 0.07 ± 0.02 µM; IC50 [6]: 27.6 ± 19.5 µM |
| CCOC(=O)C(SP(=S)(OC)OC)c1ccccc1 (stereo not shown) [Phenthoate] |  |  |  |  |  |  | 49.3 µM | 1.28 µM | 3.79 µM | 3.33 µM | 0.3 µM | Inactive |  |
| CCN(CC)c1nc(C)cc(OP(=S)(OC)OC)n1 [Pirimiphos-methyl] | 1.49 µM | 2.22 µM |  |  | 0.19 µM | Inactive | 53.3 µM | 23.6 µM |  |  |  |  |  |
| CCCN(CCOc1c(Cl)cc(Cl)cc1Cl)C(=O)n1ccnc1 [Prochloraz] | 0.22 µM | 0.07 µM | 0.53 µM | 0.81 µM | 0.05 µM | Inactive |  |  |  |  |  |  |  |
| C#CCOS(=O)OC1CCCCC1Oc1ccc(C(C)(C)C)cc1 (stereo not shown) [Propargite] | 7.75 µM | 1.87 µM | 16 µM | 0.49 µM | 0.78 µM | Inactive |  |  |  |  |  |  |  |
| OC(Cc1ccccc1Cl)(Cn1nc[nH]c1=S)C1(Cl)CC1 (stereo not shown) [Prothioconazole] | 41.9 µM | 8 µM | 47.5 µM | 0.93 µM | 2.55 µM |  |  |  |  |  |  |  | IC50 [3]: 65.8 µM; Luciferase Efficacy [3]: 65.83 ± 4.46 (-26 ± 4) % |
| CCOP(=S)(OCC)Oc1cnc2ccccc2n1 [Quinalphos] |  |  |  |  |  |  | 38.5 µM | 0.91 µM | 2.25 µM | 4.57 µM | 0.47 µM | Inactive |  |
| CC1(C)C2(Cl)C(Cl)C(Cl)C(Cl)(C(Cl)Cl)C1(Cl)C2Cl (stereo not shown) [Strobane] |  |  |  |  |  |  |  |  | 41.2 µM | 0.82 µM | 1.59 µM | Inactive | IC50 ([4]; CYP2D6 IC50): 44 µM; IC50 ([5]; CYP2C9 IC50): 9.89 µM |
| CCOP(=S)(Oc1cnc(C(C)(C)C)nc1)OC(C)C (stereo not shown) [Tebupirimfos] |  |  |  |  |  |  | 34.3 µM | 1.79 µM | 24 µM | 1.5 µM | 0.62 µM | Inactive |  |
| COC(=O)c1c(C(F)F)nc(C(F)(F)F)c(C2=NCCS2)c1CC(C)C [Thiazopyr] | 0.4 µM | 1.93 µM | 54.3 µM | 34.3 µM | 5.43 µM | Inactive |  |  |  |  |  |  |  |
| CC(C)(C)C(=O)C(Oc1ccc(Cl)cc1)n1cncn1 (stereo not shown) [Triadimefon] | 37 µM | 0.45 µM | 51.6 µM | 11.3 µM | 1.92 µM | Inactive |  |  |  |  |  |  |  |
| C[C@H]1CCCC(=O)CCC/C=C/c2cc(O)cc(O)c2C(=O)O1 [Zearalenone] | 25.3 µM | 0.12 µM |  |  | 16.6 µM | Inactive | 46.5 µM | 5.74 µM |  |  |  |  |  |
